Results taken from ChEMBL document CHEMBL1255560, “2-, 3-, and 4-(1-Oxo-1H-2,3-dihydroisoindol-2-yl)benzoic acids and their corresponding organotin carboxylates: synthesis, characterization, fluorescent, and biological activities” (2010).
Converted amounts (≈) assume the structure as drawn.

What was measured:
Assay type in all cases: functional
Staphylococcus aureus = assay: Antibacterial activity against Staphylococcus aureus by double dilution technique
Candida albicans = assay: Antifungal activity against Candida albicans by double dilution technique
Escherichia coli = assay: Antibacterial activity against Escherichia coli by double dilution technique
Pseudomonas aeruginosa = assay: Antibacterial activity against Pseudomonas aeruginosa by double dilution technique

| MIC (Staphylococcus aureus) | MIC (Candida albicans) | MIC (Escherichia coli) | MIC (Pseudomonas aeruginosa) | Structure (SMILES) |
| --- | --- | --- | --- | --- |
| 2.5 µg/mL (≈ 9.87 µM) | 1.25 µg/mL (≈ 4.94 µM) | 2.5 µg/mL (≈ 9.87 µM) | 1.25 µg/mL (≈ 4.94 µM) | O=C(O)c1ccccc1N1Cc2ccccc2C1=O |
| 1.25 µg/mL (≈ 4.94 µM) | 1.25 µg/mL (≈ 4.94 µM) | 1.25 µg/mL (≈ 4.94 µM) | 0.625 µg/mL (≈ 2.47 µM) | O=C(O)c1ccc(N2Cc3ccccc3C2=O)cc1 |
| 1.25 µg/mL (≈ 4.94 µM) | 0.625 µg/mL (≈ 2.47 µM) | 0.625 µg/mL (≈ 2.47 µM) | 0.625 µg/mL (≈ 2.47 µM) | O=C(O)c1cccc(N2Cc3ccccc3C2=O)c1 |
